US20260223850A1, “SUBSTITUTED PYRROLIDONE COMPOUND, PREPARATION METHOD THEREFOR, COMPOSITION AND APPLICATION THEREOF” (QINGDAO KINGAGROOT CHEMICAL COMPOUND CO., LTD., priority 2023, published 2026)

How the values were obtained:
Assay type in all cases: in vivo
Details in all cases: 120 g a.i./ha, spray, seedling stage sealing for water-seeding, 15 days, fresh weight control rate
Echinochloa crusgalli = experiment: Seedling stage sealing experiment for water-seeding
Echinochloa phyllopogon = experiment: as above
Outline: (§1)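 Grades run from 0 (no effect) to 9 (completely dead), each band set by percent fresh-weight growth control. Application by spray tower at 120, 60, 30 and 15 g a.i./ha in triplicate; evaluated after 15 days of greenhouse culture.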

Huaidao (rice cultivar) = experiment: Seedling stage sealing experiment for water-seeding (crop safety)
Outline: as §1

CN1C[C@H](c2cc(Cl)cc(Cl)c2)[C@@H](C(=O)Nc2cnn(C)c2C2CC2)C1=O [443′]
Echinochloa crusgalli activity level (growth control rate) (Echinochloa crusgalli): 9 | Echinochloa phyllopogon activity level (growth control rate) (Echinochloa phyllopogon): 8 (Level 8: growth control rate greater than or equal to 90% and less than 100%) | Huaidao (rice cultivar) plant damage level (growth control rate) (Huaidao (rice cultivar)): 0

COc1cc([C@H]2CN(C)C(=O)[C@@H]2C(=O)Nc2cnn(C(F)F)c2Cl)cc(C(F)(F)F)c1 [445′]
Echinochloa crusgalli activity level (growth control rate) (Echinochloa crusgalli): 9 | Echinochloa phyllopogon activity level (growth control rate) (Echinochloa phyllopogon): 9 | Huaidao (rice cultivar) plant damage level (growth control rate) (Huaidao (rice cultivar)): 0

COc1c(C(F)(F)F)ccc([C@H]2CN(C)C(=O)[C@@H]2C(=O)Nc2cnn(C)c2Cl)c1F [446′]
Echinochloa crusgalli activity level (growth control rate) (Echinochloa crusgalli): 9 | Echinochloa phyllopogon activity level (growth control rate) (Echinochloa phyllopogon): 9 | Huaidao (rice cultivar) plant damage level (growth control rate) (Huaidao (rice cultivar)): 0

Cc1cc([C@H]2CN(C)C(=O)[C@@H]2C(=O)Nc2cnn(C)c2Cl)cc(C)c1C [447′]
Echinochloa crusgalli activity level (growth control rate) (Echinochloa crusgalli): 9 | Echinochloa phyllopogon activity level (growth control rate) (Echinochloa phyllopogon): 9 | Huaidao (rice cultivar) plant damage level (growth control rate) (Huaidao (rice cultivar)): 0

Cc1cc([C@H]2CN(C)C(=O)[C@@H]2C(=O)Nc2cnn(C)c2C2CC2)cc(C)c1C [448′]
Echinochloa crusgalli activity level (growth control rate) (Echinochloa crusgalli): 9 | Echinochloa phyllopogon activity level (growth control rate) (Echinochloa phyllopogon): 9 | Huaidao (rice cultivar) plant damage level (growth control rate) (Huaidao (rice cultivar)): 0

CN1C[C@H](c2cccc3c2OC(F)(F)O3)[C@@H](C(=O)Nc2cnn(C)c2Cl)C1=O [450′]
Echinochloa crusgalli activity level (growth control rate) (Echinochloa crusgalli): 9 | Echinochloa phyllopogon activity level (growth control rate) (Echinochloa phyllopogon): 9 | Huaidao (rice cultivar) plant damage level (growth control rate) (Huaidao (rice cultivar)): 0

CCCn1ncc(NC(=O)[C@H]2C(=O)N(C)C[C@@H]2c2cccc(C)c2)c1Cl [462′]
Echinochloa crusgalli activity level (growth control rate) (Echinochloa crusgalli): 9 | Echinochloa phyllopogon activity level (growth control rate) (Echinochloa phyllopogon): 9 | Huaidao (rice cultivar) plant damage level (growth control rate) (Huaidao (rice cultivar)): 0

Cc1cccc([C@H]2CN(C)C(=O)[C@@H]2C(=O)Nc2cnn(C(F)F)c2C)c1 [465′]
Echinochloa crusgalli activity level (growth control rate) (Echinochloa crusgalli): 9 | Echinochloa phyllopogon activity level (growth control rate) (Echinochloa phyllopogon): 9 | Huaidao (rice cultivar) plant damage level (growth control rate) (Huaidao (rice cultivar)): 2 (Level 2: growth control rate greater than or equal to 10% and less than 20%)

C=Cc1c(NC(=O)[C@H]2C(=O)N(C)C[C@@H]2c2cccc(C)c2)cnn1C(F)F [468′]
Echinochloa crusgalli activity level (growth control rate) (Echinochloa crusgalli): 9 | Echinochloa phyllopogon activity level (growth control rate) (Echinochloa phyllopogon): 9 | Huaidao (rice cultivar) plant damage level (growth control rate) (Huaidao (rice cultivar)): 0

CN1C[C@H](c2cccc(C(F)(F)F)c2)[C@@H](C(=O)Nc2cnn(C)c2C(F)F)C1=O [478′]
Echinochloa crusgalli activity level (growth control rate) (Echinochloa crusgalli): 9 | Echinochloa phyllopogon activity level (growth control rate) (Echinochloa phyllopogon): 9 | Huaidao (rice cultivar) plant damage level (growth control rate) (Huaidao (rice cultivar)): 0

CN1C[C@H](c2cccc(C(F)(F)F)c2)[C@@H](C(=O)Nc2cnn(C)c2S(C)(=O)=O)C1=O [480′]
Echinochloa crusgalli activity level (growth control rate) (Echinochloa crusgalli): 9 | Echinochloa phyllopogon activity level (growth control rate) (Echinochloa phyllopogon): 9 | Huaidao (rice cultivar) plant damage level (growth control rate) (Huaidao (rice cultivar)): 1 (Level 1: growth control rate less than 10%)

COc1cccc([C@H]2CN(C)C(=O)[C@@H]2C(=O)Nc2cnn(C)c2C(F)(F)F)c1 [485′]
Echinochloa crusgalli activity level (growth control rate) (Echinochloa crusgalli): 9 | Echinochloa phyllopogon activity level (growth control rate) (Echinochloa phyllopogon): 9 | Huaidao (rice cultivar) plant damage level (growth control rate) (Huaidao (rice cultivar)): 0

Cc1ccc([C@H]2CN(C)C(=O)[C@@H]2C(=O)Nc2cnn(C(F)F)c2Cl)cc1 [486′]
Echinochloa crusgalli activity level (growth control rate) (Echinochloa crusgalli): 9 | Echinochloa phyllopogon activity level (growth control rate) (Echinochloa phyllopogon): 9 | Huaidao (rice cultivar) plant damage level (growth control rate) (Huaidao (rice cultivar)): 2 (Level 2: growth control rate greater than or equal to 10% and less than 20%)

Cc1ccc([C@H]2CN(C)C(=O)[C@@H]2C(=O)Nc2cnn(C(F)F)c2Cl)cc1C [487′]
Echinochloa crusgalli activity level (growth control rate) (Echinochloa crusgalli): 9 | Echinochloa phyllopogon activity level (growth control rate) (Echinochloa phyllopogon): 9 | Huaidao (rice cultivar) plant damage level (growth control rate) (Huaidao (rice cultivar)): 2 (Level 2: growth control rate greater than or equal to 10% and less than 20%)

CN1C[C@H](c2cc(F)cc(F)c2)[C@@H](C(=O)Nc2cnn(C)c2C(F)(F)F)C1=O [489′]
Echinochloa crusgalli activity level (growth control rate) (Echinochloa crusgalli): 9 | Echinochloa phyllopogon activity level (growth control rate) (Echinochloa phyllopogon): 9 | Huaidao (rice cultivar) plant damage level (growth control rate) (Huaidao (rice cultivar)): 0

Cc1cc(C)cc([C@H]2CN(C)C(=O)[C@@H]2C(=O)Nc2cnn(C(F)F)c2C)c1 [494′]
Echinochloa crusgalli activity level (growth control rate) (Echinochloa crusgalli): 9 | Echinochloa phyllopogon activity level (growth control rate) (Echinochloa phyllopogon): 9 | Huaidao (rice cultivar) plant damage level (growth control rate) (Huaidao (rice cultivar)): 2 (Level 2: growth control rate greater than or equal to 10% and less than 20%)

Cc1cc(C)cc([C@H]2CN(C)C(=O)[C@@H]2C(=O)Nc2cnn(C)c2CF)c1 [495′]
Echinochloa crusgalli activity level (growth control rate) (Echinochloa crusgalli): 9 | Echinochloa phyllopogon activity level (growth control rate) (Echinochloa phyllopogon): 7 (Level 7: growth control rate greater than or equal to 80% and less than 90%) | Huaidao (rice cultivar) plant damage level (growth control rate) (Huaidao (rice cultivar)): 0

C=Cc1c(NC(=O)[C@H]2C(=O)N(C)C[C@@H]2c2cc(C)cc(C)c2)cnn1C(F)F [496′]
Echinochloa crusgalli activity level (growth control rate) (Echinochloa crusgalli): 9 | Echinochloa phyllopogon activity level (growth control rate) (Echinochloa phyllopogon): 9 | Huaidao (rice cultivar) plant damage level (growth control rate) (Huaidao (rice cultivar)): 0

Cc1cc(C)cc([C@H]2CN(C)C(=O)[C@@H]2C(=O)Nc2cnn(C)c2S(C)(=O)=O)c1 [498′]
Echinochloa crusgalli activity level (growth control rate) (Echinochloa crusgalli): 9 | Echinochloa phyllopogon activity level (growth control rate) (Echinochloa phyllopogon): 9 | Huaidao (rice cultivar) plant damage level (growth control rate) (Huaidao (rice cultivar)): 0

CO/N=C/c1c(NC(=O)[C@H]2C(=O)N(C)C[C@@H]2c2cc(C)cc(C)c2)cnn1C [501′]
Echinochloa crusgalli activity level (growth control rate) (Echinochloa crusgalli): 9 | Echinochloa phyllopogon activity level (growth control rate) (Echinochloa phyllopogon): 7 (Level 7: growth control rate greater than or equal to 80% and less than 90%) | Huaidao (rice cultivar) plant damage level (growth control rate) (Huaidao (rice cultivar)): 0

Cc1cc(C)cc([C@H]2CN(C)C(=O)[C@@H]2C(=O)Nc2cnn(C)c2CO)c1 [502′]
Echinochloa crusgalli activity level (growth control rate) (Echinochloa crusgalli): 9 | Echinochloa phyllopogon activity level (growth control rate) (Echinochloa phyllopogon): 7 (Level 7: growth control rate greater than or equal to 80% and less than 90%) | Huaidao (rice cultivar) plant damage level (growth control rate) (Huaidao (rice cultivar)): 0

Cc1cc(Cl)cc([C@H]2CN(C)C(=O)[C@@H]2C(=O)Nc2cnn(C(F)F)c2Cl)c1 [505′]
Echinochloa crusgalli activity level (growth control rate) (Echinochloa crusgalli): 9 | Echinochloa phyllopogon activity level (growth control rate) (Echinochloa phyllopogon): 9 | Huaidao (rice cultivar) plant damage level (growth control rate) (Huaidao (rice cultivar)): 2 (Level 2: growth control rate greater than or equal to 10% and less than 20%)

Cc1cc(Cl)cc([C@H]2CN(C)C(=O)[C@@H]2C(=O)Nc2cnn(C)c2C2CC2)c1 [506′]
Echinochloa crusgalli activity level (growth control rate) (Echinochloa crusgalli): 9 | Echinochloa phyllopogon activity level (growth control rate) (Echinochloa phyllopogon): 9 | Huaidao (rice cultivar) plant damage level (growth control rate) (Huaidao (rice cultivar)): 0

CN1C[C@H](c2cc(F)cc(Cl)c2)[C@@H](C(=O)Nc2cnn(C)c2Cl)C1=O [507′]
Echinochloa crusgalli activity level (growth control rate) (Echinochloa crusgalli): 9 | Echinochloa phyllopogon activity level (growth control rate) (Echinochloa phyllopogon): 9 | Huaidao (rice cultivar) plant damage level (growth control rate) (Huaidao (rice cultivar)): 0

CN1C[C@H](c2cc(C(F)(F)F)cc(C(F)(F)F)c2)[C@@H](C(=O)Nc2cnn(C)c2C2CC2)C1=O [510′]
Echinochloa crusgalli activity level (growth control rate) (Echinochloa crusgalli): 9 | Echinochloa phyllopogon activity level (growth control rate) (Echinochloa phyllopogon): 9 | Huaidao (rice cultivar) plant damage level (growth control rate) (Huaidao (rice cultivar)): 2 (Level 2: growth control rate greater than or equal to 10% and less than 20%)

CN1C[C@H](c2cc(Br)cc(C(F)F)c2)[C@@H](C(=O)Nc2cnn(C)c2Cl)C1=O [511′]
Echinochloa crusgalli activity level (growth control rate) (Echinochloa crusgalli): 9 | Echinochloa phyllopogon activity level (growth control rate) (Echinochloa phyllopogon): 6 (Level 6: growth control rate greater than or equal to 70% and less than 80%) | Huaidao (rice cultivar) plant damage level (growth control rate) (Huaidao (rice cultivar)): 0

CN1C[C@H](c2cc(Br)cc(C(F)F)c2)[C@@H](C(=O)Nc2cnn(C(F)F)c2Cl)C1=O [512′]
Echinochloa crusgalli activity level (growth control rate) (Echinochloa crusgalli): 9 | Echinochloa phyllopogon activity level (growth control rate) (Echinochloa phyllopogon): 7 (Level 7: growth control rate greater than or equal to 80% and less than 90%) | Huaidao (rice cultivar) plant damage level (growth control rate) (Huaidao (rice cultivar)): 0

CN1C[C@H](c2cc(Br)cc(C(F)(F)F)c2)[C@@H](C(=O)Nc2cnn(C)c2C2CC2)C1=O [514′]
Echinochloa crusgalli activity level (growth control rate) (Echinochloa crusgalli): 9 | Echinochloa phyllopogon activity level (growth control rate) (Echinochloa phyllopogon): 6 (Level 6: growth control rate greater than or equal to 70% and less than 80%) | Huaidao (rice cultivar) plant damage level (growth control rate) (Huaidao (rice cultivar)): 0

Cc1cc([C@H]2CN(C)C(=O)[C@@H]2C(=O)Nc2cnn(C)c2Br)cc(C)c1C [516′]
Echinochloa crusgalli activity level (growth control rate) (Echinochloa crusgalli): 9 | Echinochloa phyllopogon activity level (growth control rate) (Echinochloa phyllopogon): 9 | Huaidao (rice cultivar) plant damage level (growth control rate) (Huaidao (rice cultivar)): 0

Cc1cc([C@H]2CN(C)C(=O)[C@@H]2C(=O)Nc2cnn(C)c2C#N)cc(C)c1C [518′]
Echinochloa crusgalli activity level (growth control rate) (Echinochloa crusgalli): 9 | Echinochloa phyllopogon activity level (growth control rate) (Echinochloa phyllopogon): 9 | Huaidao (rice cultivar) plant damage level (growth control rate) (Huaidao (rice cultivar)): 0

CN1C[C@H](c2cc(Cl)cc(Cl)c2)[C@@H](C(=O)Nc2cnn(C)c2Cl)C1=O [519′]
Echinochloa crusgalli activity level (growth control rate) (Echinochloa crusgalli): 9 | Echinochloa phyllopogon activity level (growth control rate) (Echinochloa phyllopogon): 9 | Huaidao (rice cultivar) plant damage level (growth control rate) (Huaidao (rice cultivar)): 1 (Level 1: growth control rate less than 10%)
